Residues, ends and D or L forms follow the SMILES beside them. Bounds are passed on as bounds.

The term Kd denotes the free concentration of one partner at which half of the binding sites on the other are occupied at equilibrium, for simple one-to-one binding. Low values mean a tighter complex, high ones a looser complex. A word on the IC50: it is the concentration at which inhibition is half-maximal. Low readings indicate greater potency, high ones weaker potency.

The target of assay [1] is T1, Ephrin type-B receptor 2 (Homo sapiens, UniProt P29323).
T1 sequence (P29323 whole entry): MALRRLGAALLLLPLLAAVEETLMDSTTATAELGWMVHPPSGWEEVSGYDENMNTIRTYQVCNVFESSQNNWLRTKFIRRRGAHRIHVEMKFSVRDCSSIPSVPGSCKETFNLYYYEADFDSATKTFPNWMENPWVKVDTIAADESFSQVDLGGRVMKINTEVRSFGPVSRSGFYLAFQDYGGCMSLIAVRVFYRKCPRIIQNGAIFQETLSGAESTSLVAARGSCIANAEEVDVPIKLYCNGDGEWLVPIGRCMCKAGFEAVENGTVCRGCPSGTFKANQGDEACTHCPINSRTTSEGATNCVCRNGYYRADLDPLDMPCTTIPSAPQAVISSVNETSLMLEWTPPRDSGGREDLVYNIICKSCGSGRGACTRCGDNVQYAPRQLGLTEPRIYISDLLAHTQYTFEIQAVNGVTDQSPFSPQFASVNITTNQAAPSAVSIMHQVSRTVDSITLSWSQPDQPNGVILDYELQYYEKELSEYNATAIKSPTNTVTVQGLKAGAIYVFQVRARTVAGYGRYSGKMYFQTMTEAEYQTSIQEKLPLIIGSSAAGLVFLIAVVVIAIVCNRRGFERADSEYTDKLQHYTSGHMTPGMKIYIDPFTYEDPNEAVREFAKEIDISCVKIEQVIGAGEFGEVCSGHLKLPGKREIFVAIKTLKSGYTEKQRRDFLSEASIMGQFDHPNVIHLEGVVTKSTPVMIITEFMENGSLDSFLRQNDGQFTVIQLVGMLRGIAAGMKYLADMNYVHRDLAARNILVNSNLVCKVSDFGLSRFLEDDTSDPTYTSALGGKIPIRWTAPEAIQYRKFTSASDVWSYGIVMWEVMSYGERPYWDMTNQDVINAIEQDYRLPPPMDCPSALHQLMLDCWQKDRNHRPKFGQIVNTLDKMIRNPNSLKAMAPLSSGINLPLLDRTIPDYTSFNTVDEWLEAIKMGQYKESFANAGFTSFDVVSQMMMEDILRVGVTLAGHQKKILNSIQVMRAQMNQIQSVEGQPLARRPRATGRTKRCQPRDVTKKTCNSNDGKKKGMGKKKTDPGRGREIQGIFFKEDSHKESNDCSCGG
Briefly: Binding affinity at human EphB2 receptor by isothermal titration calorimetry. Background: ITC needs no label: the signal is the heat of the interaction.

For assay [2], the target named is T2, Ephrin type-B receptor 2 (Mus musculus, UniProt P54763).
T2 sequence (P54763 whole entry): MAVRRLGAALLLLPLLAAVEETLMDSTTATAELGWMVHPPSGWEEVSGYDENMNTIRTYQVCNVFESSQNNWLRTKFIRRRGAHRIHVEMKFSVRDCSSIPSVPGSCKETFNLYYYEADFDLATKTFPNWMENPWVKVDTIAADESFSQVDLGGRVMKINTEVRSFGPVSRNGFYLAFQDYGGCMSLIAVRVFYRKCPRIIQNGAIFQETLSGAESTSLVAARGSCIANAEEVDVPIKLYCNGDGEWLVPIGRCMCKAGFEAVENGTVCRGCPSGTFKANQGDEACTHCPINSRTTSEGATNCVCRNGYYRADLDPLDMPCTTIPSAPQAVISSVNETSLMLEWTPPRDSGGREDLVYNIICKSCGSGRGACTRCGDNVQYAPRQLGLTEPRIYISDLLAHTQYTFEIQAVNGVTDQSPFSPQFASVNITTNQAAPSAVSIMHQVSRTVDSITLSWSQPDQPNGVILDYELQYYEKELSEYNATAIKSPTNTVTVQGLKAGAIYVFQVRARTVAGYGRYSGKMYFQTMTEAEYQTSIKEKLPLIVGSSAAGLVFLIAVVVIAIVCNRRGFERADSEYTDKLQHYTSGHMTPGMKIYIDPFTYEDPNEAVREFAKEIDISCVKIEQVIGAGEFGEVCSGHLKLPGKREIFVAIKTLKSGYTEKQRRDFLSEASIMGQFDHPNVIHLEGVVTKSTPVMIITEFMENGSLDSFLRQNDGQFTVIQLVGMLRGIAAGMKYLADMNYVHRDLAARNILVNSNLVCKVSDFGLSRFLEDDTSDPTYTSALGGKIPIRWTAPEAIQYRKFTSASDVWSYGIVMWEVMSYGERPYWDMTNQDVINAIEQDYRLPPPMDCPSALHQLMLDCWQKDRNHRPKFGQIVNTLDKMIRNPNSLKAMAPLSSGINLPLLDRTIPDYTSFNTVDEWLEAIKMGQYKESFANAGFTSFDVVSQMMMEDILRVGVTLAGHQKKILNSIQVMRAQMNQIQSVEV
Briefly: Binding affinity at mouse EphB2 receptor by ELISA.

In turn, `CC[C@H](C)[C@H](NC(=O)[C@H](Cc1c[nH]c2ccccc12)NC(=O)[C@H](CCC(N)=O)NC(=O)[C@H](CC(N)=O)NC(=O)[C@@H](N)CO)C(=O)N[C@@H](CC(C)C)C(=O)N1CCC[C@H]1C(=O)N[C@@H](CCCN=C(N)N)C(=O)N[C@@H](CC(C)C)C(=O)N1CCC[C@H]1C(=O)N[C@@H](CCC(N)=O)C(=O)N[C@@H](Cc1cnc[nH]1)C(=O)O` (H-SNQWILPRLPQH-OH) showed an equilibrium dissociation constant (Kd) on Ephrin type-B receptor 2 [1] greater than 50 µM.

`CC[C@H](C)[C@H](NC(=O)[C@H](Cc1c[nH]c2ccccc12)NC(=O)[C@H](CCC(N)=O)NC(=O)[C@H](CC(N)=O)NC(=O)[C@@H](N)CO)C(=O)N[C@@H](CO)C(=O)N1CCC[C@H]1C(=O)N[C@@H](CCCNC(=N)N)C(=O)N[C@@H](CC(C)C)C(=O)N1CCC[C@H]1C(=O)N[C@@H](CCC(N)=O)C(=O)N[C@@H](Cc1cnc[nH]1)C(=O)O` (H-SNQWISPRLPQH-OH) yielded a Kd at Ephrin type-B receptor 2 [1] greater than 50 µM.

At Ephrin type-B receptor 2 [1], `CC[C@H](C)[C@H](NC(=O)[C@H](Cc1c[nH]c2ccccc12)NC(=O)[C@H](CCC(N)=O)NC(=O)[C@H](CC(N)=O)NC(=O)[C@@H](N)CO)C(=O)N[C@@H](CCC(N)=O)C(=O)N1CCC[C@H]1C(=O)N[C@@H](CCCN=C(N)N)C(=O)N[C@@H](CC(C)C)C(=O)N1CCC[C@H]1C(=O)N[C@@H](CCC(N)=O)C(=O)N[C@@H](Cc1cnc[nH]1)C(=O)O` (H-SNQWIQPRLPQH-OH) had a Kd greater than 50 µM.

As to `CC[C@H](C)[C@H](NC(=O)[C@H](Cc1c[nH]c2ccccc12)NC(=O)[C@H](CCC(=O)O)NC(=O)[C@H](CC(N)=O)NC(=O)[C@@H](N)CO)C(=O)N[C@@H](CCC(N)=O)C(=O)N1CCC[C@H]1C(=O)N[C@@H](CCCNC(=N)N)C(=O)N[C@@H](CC(C)C)C(=O)N1CCC[C@H]1C(=O)N[C@@H](CCC(N)=O)C(=O)N[C@@H](Cc1cnc[nH]1)C(=O)O`, the IC50 at Ephrin type-B receptor 2 [2] worked out at 15 µM.

With `CC[C@H](C)[C@H](NC(=O)[C@H](Cc1c[nH]c2ccccc12)NC(=O)[C@H](CCC(=O)O)NC(=O)[C@H](CC(N)=O)NC(=O)[C@@H](N)CO)C(=O)N[C@@H](CCC(N)=O)C(=O)N1CCC[C@H]1C(=O)N[C@@H](Cc1cnc[nH]1)C(=O)N[C@@H](CC(C)C)C(=O)N1CCC[C@H]1C(=O)N[C@@H](CCC(N)=O)C(=O)N[C@@H](Cc1cnc[nH]1)C(=O)O` (H-SNEWIQPHLPQH-OH), the Kd on Ephrin type-B receptor 2 [1] is greater than 50 µM.

At Ephrin type-B receptor 2 [1], `CC[C@H](C)[C@H](NC(=O)[C@H](Cc1c[nH]c2ccccc12)NC(=O)[C@H](CCC(=O)O)NC(=O)[C@H](CC(N)=O)NC(=O)[C@@H](N)CO)C(=O)N[C@@H](CCC(N)=O)C(=O)N1CCC[C@H]1C(=O)N[C@@H](C)C(=O)N[C@@H](CC(C)C)C(=O)N1CCC[C@H]1C(=O)N[C@@H](CCC(N)=O)C(=O)N[C@@H](Cc1cnc[nH]1)C(=O)O` (H-SNEWIQPALPQH-OH) had a dissociation constant Kd greater than 50 µM.

With `CC[C@H](C)[C@H](NC(=O)[C@@H]1CCCN1C(=O)CNC(=O)[C@H](CC(N)=O)NC(=O)[C@@H]1CCCN1C(=O)[C@H](CO)NC(=O)[C@H](Cc1ccccc1)NC(=O)[C@H](CC(C)C)NC(=O)[C@H](Cc1ccc(O)cc1)NC(=O)[C@H](CC(N)=O)NC(=O)[C@@H](N)[C@H](C)O)C(=O)N[C@@H](C)C(=O)N[C@@H](CCCN=C(N)N)C(=O)N[C@@H](C)C(=O)N[C@@H](Cc1c[nH]c2ccccc12)C(=O)O`, the Kd at Ephrin type-B receptor 2 [1] was greater than 50 µM.

Take `CC[C@H](C)[C@H](NC(=O)[C@H](Cc1c[nH]c2ccccc12)NC(=O)[C@H](CCC(N)=O)NC(=O)[C@H](CC(N)=O)NC(=O)[C@@H](N)CO)C(=O)NCC(=O)N1CCC[C@H]1C(=O)N[C@@H](C)C(=O)N[C@@H](CC(C)C)C(=O)N1CCC[C@H]1C(=O)N[C@@H](CCC(N)=O)C(=O)N[C@@H](Cc1cnc[nH]1)C(=O)O` (H-SNQWIGPALPQH-OH): the Kd at Ephrin type-B receptor 2 [1] was greater than 50 µM.
